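Test compounds were applied to cells in 96-well plates for 48 hours at 5 doses. GI50 = concentration required for 50% inhibition of growth. TGI: concentration producing complete growth inhibition.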
Legend:
Assay in all cases: growth of human tumour cells (NCI), 48 h
NCI/ADR-RES ovarian = test system: NCI/ADR-RES ovarian
OVCAR-3 ovarian = test system: OVCAR-3 ovarian
UACC-62 melanoma = test system: UACC-62 melanoma
SNB-75 CNS = test system: SNB-75 CNS
MCF7 breast = test system: MCF7 breast
K-562 leukemia = test system: K-562 leukemia
TK-10 renal = test system: TK-10 renal
786-0 renal = test system: 786-0 renal
SR leukemia = test system: SR leukemia
MDA-MB-231 breast = test system: MDA-MB-231 breast
MDA-N = test system: MDA-N

Compound | TGI (NCI/ADR-RES ovarian) [µM] | TGI (OVCAR-3 ovarian) [µM] | TGI (UACC-62 melanoma) [µM] | TGI (SNB-75 CNS) [µM] | TGI (MCF7 breast) [µM] | TGI (K-562 leukemia) [µM] | TGI (TK-10 renal) [µM] | TGI (786-0 renal) [µM] | TGI (SR leukemia) [µM] | GI50 (NCI/ADR-RES ovarian) [µM] | GI50 (TK-10 renal) [µM] | GI50 (OVCAR-3 ovarian) [µM] | GI50 (UACC-62 melanoma) [µM] | GI50 (SNB-75 CNS) [µM] | GI50 (MDA-MB-231 breast) [µM] | TGI (MDA-MB-231 breast) [µM] | GI50 (K-562 leukemia) [µM] | TGI (MDA-N) [µM] | GI50 (MCF7 breast) [µM] | GI50 (SR leukemia) [µM]
CC1(CO)C(O)CCC2(C)C1C(O)CC1CC3CC12CCC3(O)CO (stereo not drawn) | > 225 | > 225 | > 225 | > 225 | > 225 | > 225 |  |  |  |  |  |  |  |  |  |  |  |  |  | 
O=c1ccn(Cc2ccccc2CCl)c(=O)[nH]1 | 44.4 | 42 | 63.4 | > 100 | 77.9 | > 100 | > 100 | 38 | 73.4 |  |  |  |  |  |  |  |  |  |  | 
Fc1ccc(Nc2ncc(-c3cc(F)c(Cl)cc3Cl)s2)cc1Cl | 32.5 | 23.9 | 26.5 | > 100 | 2.48 | 15.5 | 21.8 |  |  | 17.7 | 8.05 | 10.5 | 8.41 | 39.3 | 2.15 | 6.87 | 3.46 |  |  | 
CC(=O)Nc1c2sscc-2n(C)c1=O | 4.22 | 3.3 | 5.36 | 3.05 | 1.69 | 5.71 | 4.83 | 3.24 |  |  |  |  |  |  |  | 3.54 |  | 3.13 |  | 
OCC(O)C(O)C(O)C(O)CNCCO/N=C1/C(c2c(O)[nH]c3ccccc23)=Nc2ccccc21 (stereo not drawn) | > 50 | 26.3 | 17.5 | 24.5 | 33.1 | 44.4 | > 50 | > 50 | 25.3 |  |  |  |  |  |  | 29.7 |  | 19.4 |  | 
O=C(CC(Cc1ccccc1)c1ccc(Oc2ccccc2)cc1)Nc1cccc(Cl)c1 (stereo not drawn) | 38.3 | 49.6 | 14.8 | 56.6 | 18.3 | > 100 | > 100 | > 100 | 47.5 |  |  |  |  |  |  | 53.8 |  | > 100 |  | 
COc1ccc(C2CC(c3ccc(NS(=O)(=O)c4cc([N+](=O)[O-])ccc4C)cc3)=NN2S(=O)(=O)c2cc([N+](=O)[O-])ccc2C)cc1 (stereo not drawn) | > 100 | > 100 | > 100 | > 100 | > 100 | > 100 | > 100 | > 100 | > 100 |  |  |  |  |  |  | > 100 |  | > 100 |  | 
N#CC(NNC(=O)c1c(Cl)c(Cl)c(Cl)c(Cl)c1-c1nc2ccc(C(=O)c3ccccc3)cc2[nH]1)c1ccccc1 (stereo not drawn) | 32.2 | 57 |  | 27.8 | 12.7 | 19.3 | 90.8 | 42.9 | 11.2 |  |  |  |  |  |  | 36.4 |  | 6.78 |  | 
O=[N+]([O-])c1ccc(NNN=Nc2ccc(-c3nc4ccccc4[nH]3)cc2)c([N+](=O)[O-])c1 | > 100 | > 100 | 38 | > 100 | 57.6 | 79.7 | > 100 | > 100 | > 100 |  |  |  |  |  |  | > 100 |  | > 100 |  | 
COc1ccc(/C=C2\C[C@H]3[C@@H]4CC=C5C[C@@H](OC(C)=O)CC[C@]5(C)[C@H]4CC[C@]3(C)C2=O)cc1OC | > 100 | > 100 | > 100 | > 100 | > 100 | > 100 |  | > 100 | > 100 |  |  |  |  |  |  |  |  | > 100 |  | 
COC1=CC(=O)c2c(c(COC(C)=O)cn2C)C1=O | 0.295 | 0.395 | 0.283 | 0.88 | 2.5 | 0.707 | 0.207 |  | 0.545 |  |  |  |  |  |  | 1.08 |  | 0.253 |  | 
C1=Nc2ccccc2Cn2nncc21 |  | > 100 | 55.3 |  |  | > 100 | > 100 |  | > 100 |  |  |  |  |  |  |  |  |  |  | 
CC(C)NC(=O)OCc1nnn2c1CCC2 |  | > 100 | > 100 | > 100 |  | > 100 | > 100 |  | > 100 |  |  |  |  |  |  |  |  |  |  | 
COc1ccc(N2C(=O)C(=O)N(C)C2=O)c2ccccc12 | > 10 | > 10 | > 10 | > 10 | > 10 | > 10 | > 10 |  | > 10 |  |  |  |  |  |  | > 10 |  |  |  | 
OC(c1ccccc1)C1CC2C=CC1C2 (stereo not drawn) |  | > 100 | > 100 | > 100 |  | > 100 | > 100 |  |  |  |  |  |  |  |  |  |  |  |  | 
O=[N+]([O-])c1ccc(Cc2nc3cc4ccccc4cc3[nH]2)cc1C(F)(F)F | 23.9 | 26 |  | 37.3 | 55.5 | 30.3 | 35.8 | 25.4 |  |  |  |  |  |  |  |  |  |  |  | 
Clc1ccc(C2CC(c3cccc(Nc4ccncc4)c3)=NN2c2ccccc2)cc1 (stereo not drawn) |  |  | 3.13 | 2.79 | 3.44 | 5.45 | 3.45 |  |  |  | 1.83 |  | 1.71 | 1.37 | 1.7 | 3.21 | 1.67 |  | 1.65 | 
COc1cc(/C=N/N=C(\N)NO)ccc1O |  |  | > 100 |  |  | > 100 |  |  |  |  |  |  |  |  |  |  |  |  |  | 
CC(C)C(=O)Nc1ccc(-c2nc(-c3cccc(OCCN4CCOCC4)c3)c(-c3ccnc(Br)c3)[nH]2)cc1 | > 100 | > 100 | 5.71 | 4.28 | 4.92 |  | 31.3 |  | 7.09 | 6.23 | 4.32 | 4.24 | 2.1 | 0.647 | 3.66 | > 100 |  |  | 1.89 | 1.83
CC(C)(C)CNCCCNc1ccc(Cl)cc1 | > 100 |  | 33.4 |  | 46 |  | 73.9 | > 100 | 49.4 |  |  |  |  |  |  | 82.3 |  | > 100 |  | 
Fc1cc(C2=Nn3c(CNc4ccc(Cl)cc4)nnc3S/C2=C\c2ccc(-c3ccc(Cl)cc3)o2)c(Cl)cc1Cl | 27.5 | > 100 | 55.8 |  | > 100 | > 100 | > 100 | > 100 | > 100 |  |  |  |  |  |  | 32.2 |  | > 100 |  | 
O=C(c1cc(Cl)cc(Cl)c1)N(Cc1cccnc1)C(=S)N(Cc1cccnc1)C(=O)c1cc(Cl)cc(Cl)c1 | > 100 | 61.6 | > 100 | > 100 | > 100 | > 100 | 89.6 | 73.8 | > 100 |  |  |  |  |  |  | 71.5 |  | > 100 |  | 
CNCCCn1c2c(c3ccc(Cl)cc3c1=O)C(=O)c1cc(OC)cnc1-2 | 2.91 | 2.78 |  | 1.78 |  |  |  |  | 1.11 | 0.536 |  | 1.41 |  | 0.263 | 1.62 | 3.54 |  |  |  | 0.143
CSC1=C(SC)C(=O)c2cn(C)c(=O)cc2C1=O | > 100 | 3.54 | 7.21 | 22.5 | 4.49 | 0.424 | 5.39 |  |  |  |  |  |  |  |  | 3.7 |  | 3.06 |  | 
O=c1ccc2c(Cl)cccc2o1 | > 100 | > 100 | > 100 | > 100 | > 100 | > 100 | > 100 |  | > 100 |  |  |  |  |  |  | > 100 |  | > 100 |  | 
